Assay results reported in patent US20080200334A1, “Method For Enhancing The Effectiveness Of Ethaboxam” (BASF Aktiengesellschaft, priority 2004, published 2008).
Read-outs that look alike come from different tables or passages of the source.

Assays:
[1] = tested on: Pyricularia oryzae; type: cell-based
[2] = tested on: Plasmopara viticola; test: Use Example 1: peronospora of grapevines, greenhouse, 7 days of protective application; type: in vivo; conditions: grapevine leaves sprayed 7 days before inoculation
Protocol: The active compounds were prepared jointly or separately as a stock solution with 25 mg of active compound which was made up to 10 ml using a mixture of acetone and/or DMSO and the emulsifier Uniperol® EL (wetting agent having emulsifying and dispersing action based on ethoxylated alkylphenols) in a volume ratio of solvent/emulsifier of 99 to 1. The mixture was then made up with water to 100 ml. This stock solution was diluted with the solvent/emulsifier/water mixture described to the concentration of active compounds stated below.
The active compounds pyraclostrobin, famoxadone, fluazinam and zoxamide were used as commercially available formulations.
The visually determined percentages of infected leaf areas were converted into efficacies in % of the untreated control:
The efficacy (E) is calculated as follows using Abbot's formula:
An efficacy of 0 means that the infection level of the treated plants corresponds to that of the untreated control plants; an efficacy of 100 means that the treated plants were not infected.
The expected efficacies of mixtures of active compounds were determined using Colby's formula (Colby, S. R. “Calculating synergistic and antagonistic responses of herbicide combinations”, Weeds, 15, 20-22, 1967) and compared with the observed efficacies.
E=x+y−x·y/100 • E expected efficacy, expressed in % of the untreated control, when using the mixture of the active compounds A and B at the concentrations a and b • x efficacy, expressed in % of the untreated control, when using the active compound A at the concentration a • y efficacy, expressed in % of the untreated control, when using the active compound B at the concentration b
Effectiveness Against Peronospora of Grapevines Caused by Plasmopara viticola at 7 days of Protective Application
Leaves of potted vines were sprayed to runoff point with an aqueous suspension having the concentration of active compound given below. To be able to assess the persistency of the substances, the plants were, after the spray coating had dried on, placed in a greenhouse for 7 days. Only then were the leaves inoculated with an aqueous zoospore suspension of Plasmopara viticola. The grapevines were then initially placed in a water-vapor-saturated chamber at 24° C. for 48 hours and then in a greenhouse at temperatures between 20 and 30° C. for 5 days. After this period of time the plants were, to promote sporangiophore eruption, again placed in a humid chamber for 16 hours. The extent of the development of the infection on the undersides of the leaves was then determined visually.

[3] = tested on: Phytophthora infestans; type: in vivo; conditions: tomato leaves sprayed 3 days before inoculation, rated after 6 days
[4] = tested on: Botrytis cinerea; test: Use Example 4: gray mold, microtiter test; type: cell-based; conditions: day 7 after inoculation, 405 nm
[5] = tested on: Septoria tritici; test: Use Example 6: Septoria speckled leaf blotch, microtiter test; type: cell-based; conditions: day 7 after inoculation, 405 nm
[6] = tested on: Plasmopara viticola; type: in vivo

Question: With `CC1(c2ccc(Oc3ccccc3)cc2)OC(=O)N(Nc2ccccc2)C1=O` (racemic) [famoxadone II-11, (RS)-3-anilino-5-methyl-5-(4-phenoxyphenyl)-1,3-oxazolidine-2,4-dione] as the molecule, how does the “Observed effect (%)” value ([1]; 0.5 ppm) read?
Answer: 64%

Question: Which “Observed effect (%)” value ([2]; 4 ppm) does the source give for `CCNC(=O)NC(=O)/C(C#N)=N/OC` [cymoxanil II-3, cymoxanil] here?
Answer: 0%

Question: Which results are given for `COc1ccc(C(=CC(=O)N2CCOCC2)c2ccc(Cl)cc2)cc1OC` [dimethomorph II-2, 3-(4-chlorophenyl)-3-(3,4-dimethoxyphenyl)-1-morpholin-4-ylpropenone]?
Answer: Observed effect (%) ([3]; 4 ppm): 0%; Observed effect (%) ([3]; 16 ppm): 22%; Observed effect (%) ([4]; 63 ppm): 9%; Observed effect (%) ([2]; 4 ppm): 0%; Observed effect (%) ([1]; 4 ppm): 6%

Question: With `N#Cc1sc2c(=O)c3ccccc3c(=O)c=2sc1C#N` [dithianon II-15, 5,10-dioxo-5,10-dihydronaphtho[2,3-b][1,4]dithiin-2,3-dicarbonitrile] as the molecule, how does the “Observed effect (%)” value ([5]; 0.125 ppm) read?
Answer: 35%

Question: How did the “Observed effect (%)” value ([6]; 1 ppm) turn out when `CCNc1nc(CC)c(C(=O)NC(C#N)c2cccs2)s1` (centres unmarked) [ethaboxam I, N-(cyano-2-thienylmethyl)-4-ethyl-2-(ethylamino)-5-thiazolecarboxamide] was run?
Answer: 61%

Question: And the “Observed effect (%)” value ([3]; 16 ppm)?
Answer: 33%

Question: And the “Observed effect (%)” value ([4]; 1 ppm)?
Answer: 0%

Question: What about the “Observed effect (%)” value ([4]; 2 ppm) of the same molecule?
Answer: 0%

Question: What about the “Observed effect (%)” value ([4]; 4 ppm) of the same molecule?
Answer: 0%

Question: And the “Observed effect (%)” value ([4]; 32 ppm)?
Answer: 0%

Question: What about the “Observed effect (%)” value ([4]; 63 ppm) of the same molecule?
Answer: 11%

Question: And the “Observed effect (%)” value ([5]; 0.125 ppm)?
Answer: 0%

Question: What about the “Observed effect (%)” value ([5]; 4 ppm) of the same molecule?
Answer: 0%

Question: And the “Observed effect (%)” value ([5]; 16 ppm)?
Answer: 0%

Question: And the “Observed effect (%)” value ([2]; 1 ppm)?
Answer: 0%

Question: And the “Observed effect (%)” value ([2]; 4 ppm)?
Answer: 22%

Question: What about the “Observed effect (%)” value ([2]; 16 ppm) of the same molecule?
Answer: 44%

Question: What about the “Observed effect (%)” value ([1]; 0.125 ppm) of the same molecule?
Answer: 0%

Question: What about the “Observed effect (%)” value ([1]; 0.25 ppm) of the same molecule?
Answer: 0%

Question: And the “Observed effect (%)” value ([1]; 8 ppm)?
Answer: 18%

Question: And the “Observed effect (%)” value ([1]; 16 ppm)?
Answer: 41%

Question: And the “Observed effect (%)” value ([1]; 63 ppm)?
Answer: 56%

Question: With `O=[N+]([O-])c1cc(C(F)(F)F)c(Cl)c([N+](=O)[O-])c1Nc1ncc(C(F)(F)F)cc1Cl` [fluazinam II-4, 3-chloro-N-[3-chloro-2,6-dinitro-4-(trifluoromethyl)phenyl]-5-(trifluoromethyl)-2-pyridinamine] as the molecule, how does the “Observed effect (%)” value ([2]; 63 ppm) read?
Answer: 22%

Question: Which results are given for `COc1ccc(C(=CC(=O)N2CCOCC2)c2ccc(F)cc2)cc1OC` [flumorph II-8, 3-(4-fluorophenyl)-3-(3,4-dimethoxyphenyl)-1-morpholin-4-ylpropenone]?
Answer: Observed effect (%) ([4]; 63 ppm): 16%; Observed effect (%) ([1]; 16 ppm): 11%

Question: Which results are given for `O=C1c2ccccc2C(=O)N1SC(Cl)(Cl)Cl` [folpet II-10, folpet]?
Answer: Observed effect (%) ([4]; 1 ppm): 38%; Observed effect (%) ([5]; 4 ppm): 54%; Observed effect (%) ([1]; 1 ppm): 20%

Question: `COC(=O)N(OC)c1ccccc1COc1ccn(-c2ccc(Cl)cc2)n1` [pyraclostrobin II-6, methyl N-{2-[1-(4-chlorophenyl)-1H-pyrazol-3-yloxymethyl]phenyl}(N-methoxy)carbamate] was tested. Which “Observed effect (%)” value ([4]; 0.5 ppm) did it give?
Answer: 22%

Question: For “ethyl phosphonate aluminum [fosethyl-Al II-12]”, which “Observed effect (%)” value [1] is on record?
Answer: 8%

Question: Which “Observed effect (%)” value ([6]; in vivo) does the source give for “manganese ethylenebis(dithiocarbamate) [maneb II-5]” here?
Answer: 0%

Question: “manganese ethylenebis(dithiocarbamate) zinc complex [mancozeb II-9]” was tested. Which “Observed effect (%)” value ([4]; 4 ppm) did it give?
Answer: 30%

Question: What about the “Observed effect (%)” value ([5]; 1 ppm) of the same molecule?
Answer: 29%

Question: Which “Observed effect (%)” value ([5]; 4 ppm) does the source give for “zinc ammoniate ethylenebis(dithiocarbamate) [metiram II-14]” here?
Answer: 19%
